# Assay results: ChEMBL document CHEMBL3045633, “Synthesis and antimicrobial activity of newer indole semicarbazones” (2012)
# Columns and labels:
# Format in all cases: functional
# [1] = test system: Staphylococcus epidermidis; test: Antibacterial activity against Staphylococcus epidermidis after 24 hr by broth dilution method
# Klebsiella pneumoniae = test: Antibacterial activity against Klebsiella pneumoniae after 24 hr by broth dilution method
# Candida albicans [2] = test: Antifungal activity against Candida albicans at 100 ug after 48 hr by agar cup bioassay; settings: read-out: DIZ
# Diutina rugosa [3] = test: Antifungal activity against Candida rugosa at 150 ug after 48 hr by agar cup bioassay; settings: read-out: DIZ
# Staphylococcus aureus = test: Antibacterial activity against Staphylococcus aureus after 24 hr by broth dilution method
# Pseudomonas aeruginosa = test: Antibacterial activity against Pseudomonas aeruginosa after 24 hr by broth dilution method
# Candida albicans [4] = test: Antifungal activity against Candida albicans at 150 ug after 48 hr by agar cup bioassay; settings: read-out: DIZ
# Escherichia coli = test: Antibacterial activity against Escherichia coli after 24 hr by broth dilution method
# Bacillus subtilis = test: Antibacterial activity against Bacillus subtilis after 24 hr by broth dilution method
# Diutina rugosa [5] = test: Antifungal activity against Candida rugosa at 100 ug after 48 hr by agar cup bioassay; settings: read-out: DIZ
# Candida albicans [6] = test: Antifungal activity against Candida albicans at 50 ug after 48 hr by agar cup bioassay; settings: read-out: DIZ
# Diutina rugosa [7] = test: Antifungal activity against Candida rugosa at 50 ug after 48 hr by agar cup bioassay; settings: read-out: DIZ
Structure (SMILES),MIC [1] [µg/mL],MIC (Klebsiella pneumoniae) [µg/mL],zone of inhibition at 100 µg/disc (Candida albicans [2]) [mm],zone of inhibition at 150 µg/disc (Diutina rugosa [3]) [mm],MIC (Staphylococcus aureus) [µg/mL],MIC (Pseudomonas aeruginosa) [µg/mL],zone of inhibition at 150 µg/disc (Candida albicans [4]) [mm],MIC (Escherichia coli) [µg/mL],MIC (Bacillus subtilis) [µg/mL],zone of inhibition at 100 µg/disc (Diutina rugosa [5]) [mm],zone of inhibition at 50 µg/disc (Candida albicans [6]) [mm],zone of inhibition at 50 µg/disc (Diutina rugosa [7]) [mm]
NC(=O)N/N=C/c1c(-c2ccccc2)n(CC(=O)c2ccccc2)c2ccccc12,110,115,0,8,130,100,8,100,125,0,,
NC(=O)N/N=C/c1c(-c2ccccc2)n(CC(=O)c2ccc(Cl)cc2)c2ccccc12,140,120,4,12,130,115,10,125,110,5,,
NC(=O)N/N=C/c1c(-c2ccccc2)n(CC(=O)c2ccc(Br)cc2)c2ccccc12,130,130,,,125,135,,120,105,,,
Cc1ccc(C(=O)Cn2c(-c3ccccc3)c(/C=N/NC(N)=O)c3ccccc32)cc1,125,> 150,7,10,130,> 150,10,130,> 150,7,,
COc1ccc(C(=O)Cn2c(-c3ccccc3)c(/C=N/NC(N)=O)c3ccccc32)cc1,130,120,8,10,110,145,10,140,140,8,,
NC(=O)N/N=C/c1c(-c2ccccc2)n(CC(=O)c2ccc([N+](=O)[O-])cc2)c2ccccc12,110,37.5,9,14,125,75,14,130,120,10,,
NC(=O)N/N=C/c1c(-c2ccccc2)n(CC(=O)c2ccc(-c3ccccc3)cc2)c2ccccc12,130,135,,,110,105,,120,> 150,,,
C=CCn1c(-c2ccccc2)c(/C=N/NC(N)=O)c2ccccc21,115,> 150,10,12,125,125,15,120,140,7,,
CCCCn1c(-c2ccccc2)c(/C=N/NC(N)=O)c2ccccc21,135,110,9,10,125,120,12,140,> 150,9,,
C#CCn1c(-c2ccccc2)c(/C=N/NC(N)=O)c2ccccc21,> 150,110,8,15,> 150,> 150,13,> 150,125,10,,
C[C@@H]1[C@H](O)[C@@H](C)/C=C/C=C/C=C/C=C/C=C/C=C/C=C/[C@H](O[C@@H]2O[C@H](C)[C@@H](O)[C@H](N)[C@@H]2O)C[C@@H]2O[C@](O)(C[C@@H](O)C[C@@H](O)[C@H](O)CC[C@@H](O)C[C@@H](O)CC(=O)O[C@H]1C)C[C@H](O)[C@H]2C(=O)O [AMPHOTERICIN B],,,,,,,,,,,23.5,21
O=C(O)c1cn(C2CC2)c2cc(N3CCNCC3)c(F)cc2c1=O [CIPROFLOXACIN],22,25,,,,,,20,24,,,
